# Assay results from patent US12128035B2, “Activating pyruvate kinase R” (Novo Nordisk Health Care AG, priority 2021, dated 2024).
# Test system: ATP blood levels
# Test: Phase 1 SAD/MAD: blood ATP (LC-MS/MS) in healthy volunteers
# Assay type: in vivo, human
# Settings: for Median Percentage Change in ATP Levels / Mean Percentage Change in ATP Levels: HV 400 mg QD
# Description: In this study, SAD/MAD cohorts are randomized (3 to 1) to receive Compound 1 or placebo (P). Compound 1 was evaluated first in 4 healthy SAD cohorts and 4 healthy MAD (14-day dosing period) cohorts. Based on the safety, and PK/PD profile from HS, Compound 1 is then evaluated in 1 SCD SAD cohort and 2 SCD MAD cohorts. Specifically, based on the safety and pharmacokinetic/pharmacodynamics (PK/PD) profile in healthy volunteer studies, Compound 1 is evaluated in patients (pts) with SCD, first in a single dose (SD or SAD) cohort and then in multiple-dose (MD or MAD) cohorts (14-day and 12-week). Safety assessments include AEs, vital signs, ECGs and laboratory parameters. PK/PD blood sampling was performed on Day 1 (SAD/MAD) and Day 14 (MAD) and up to 72 h after the last dose and at the end-of-study visit. PD parameters included 2,3-DPG, ATP, and p50 in all cohorts with additional PD studies (including oxygen scan) performed only in the SCD cohorts. PD parameters included 2,3-DPG, ATP, p50, RBC deformability with controlled deoxygenation and reoxygenation (Lorrca® oxygen scan) and varying osmolality (Lorrca® osmoscan)). To maintain study blind, pt identifiers were removed when needed.
# In the MAD cohorts, the subjects' blood ATP levels were measured […] by a qualified LC-MS/MS method for the quantitation of ATP in blood. […] Table 20A reports the median percentage change in blood ATP levels, relative to baseline, measured over time after the first dose on days 1 and 14 in healthy volunteers who received daily doses of Compound 1 (100 mg BID, 200 mg BID, 300 mg BID, or 400 mg QD) or placebo for 14 days. Table 20B reports the mean percentage change in ATP blood levels, relative to baseline, measured over time after the first dose on days 1 and 14 in healthy volunteers who received daily doses of Compound 1 (100 mg BID, 200 mg BID, 300 mg BID, or 400 mg QD) for 14 days.
# The following procedures are employed for the analysis of ATP and 2,3-DPG in human whole blood K2EDTA using a protein precipitation extraction procedure and analysis by LC-MS/MS.
# The following procedures are used for sample extraction prior to analysis via LC-MS/MS. 15.0 μL of the calibration standards, quality controls, matrix blanks, and samples are aliquoted into a 96-well plate. 50.0 μL of the internal standard spiking solution is added to all samples on the plate, with the exception of the matrix blank samples; 50.0 μL of water is added to the matrix blank samples. Subsequently, 150 μL of water is added to all samples on the plate. The plate is then covered and agitated by vortex at high speed for ten minutes, after which 750 μL of methanol is added to all samples on the plate. The plate is covered and agitated by vortex for approximately 1 minute. The plate is then centrifuged at approximately 3500 RPM at approximately 4° C. for five minutes. After centrifugation, a liquid handler is used to transfer 50 μL of each sample to a new 96-well plate, and 200 μL of acetonitrile is added to all samples on the plate. The newly prepared plate is covered and agitated by vortex for approximately 1 minute. The plate is then centrifuged at approximately 3500 RPM at approximately 4° C. for 2 minutes.
# [1] = Day 1, 24 h after first daily dose
# [2] = Day 14, 0 h after first daily dose
# [3] = Day 14, 6 h after first daily dose
# [4] = Day 14, 8 h after first daily dose
# [5] = Day 14, 12 h after first daily dose
# [6] = Day 14, 16 h after first daily dose
# [7] = Day 14, 24 h after first daily dose
# [8] = Day 14, 48 h after first daily dose
# [9] = Day 14, 72 h after first daily dose
# [10] = HV single 200 mg, 0 h after dose
# [11] = HV single 200 mg, 6 h after dose
# [12] = HV single 200 mg, 8 h after dose
# [13] = HV single 200 mg, 12 h after dose
# [14] = HV single 200 mg, 16 h after dose
# [15] = HV single 200 mg, 24 h after dose
# [16] = HV single 200 mg, 36 h after dose
# [17] = HV single 200 mg, 48 h after dose
# [18] = HV single 200 mg, 72 h after dose
# [19] = HV single 400 mg, 0 h after dose
# [20] = HV single 400 mg, 6 h after dose
# [21] = HV single 400 mg, 8 h after dose
# [22] = HV single 400 mg, 12 h after dose
# [23] = HV single 400 mg, 16 h after dose
# [24] = HV single 400 mg, 24 h after dose
# [25] = HV single 400 mg, 36 h after dose
# [26] = HV single 400 mg, 48 h after dose
# [27] = HV single 400 mg, 72 h after dose
# [28] = HV single 700 mg, 0 h after dose
# [29] = HV single 700 mg, 6 h after dose
# [30] = HV single 700 mg, 8 h after dose
# [31] = HV single 700 mg, 12 h after dose
# [32] = HV single 700 mg, 16 h after dose
# [33] = HV single 700 mg, 24 h after dose
# [34] = HV single 700 mg, 36 h after dose
# [35] = HV single 700 mg, 48 h after dose
# [36] = HV single 700 mg, 72 h after dose
# [37] = HV single 1000 mg, 0 h after dose
# [38] = HV single 1000 mg, 6 h after dose
# [39] = HV single 1000 mg, 8 h after dose
# [40] = HV single 1000 mg, 12 h after dose
# [41] = HV single 1000 mg, 16 h after dose
# [42] = HV single 1000 mg, 24 h after dose
# [43] = HV single 1000 mg, 36 h after dose
# [44] = HV single 1000 mg, 48 h after dose
# [45] = HV single 1000 mg, 72 h after dose
structure (smiles),measurement,setting,value
"O=C([C@H](CO)c1ccccc1)N1CC2=C(C1)CN(S(=O)(=O)c1cnc3c(c1)OCCO3)C2 (single isomer, unassigned) [Compound 1]",Median Percentage Change in ATP Levels,"Day 1, 16 h after first daily dose",−1.8%
same,Mean Percentage Change in ATP Levels,[1],1.9%
same,Median Percentage Change in ATP Levels,[1],0.0%
same,Mean Percentage Change in ATP Levels,[2],54%
same,Median Percentage Change in ATP Levels,[2],52%
same,Mean Percentage Change in ATP Levels,[3],48%
same,Median Percentage Change in ATP Levels,[3],52%
same,Mean Percentage Change in ATP Levels,[4],51%
same,Median Percentage Change in ATP Levels,[4],52%
same,Mean Percentage Change in ATP Levels,[5],50%
same,Median Percentage Change in ATP Levels,[5],56%
same,Mean Percentage Change in ATP Levels,[6],51%
same,Median Percentage Change in ATP Levels,[6],51%
same,Mean Percentage Change in ATP Levels,[7],57%
same,Median Percentage Change in ATP Levels,[7],52%
same,Mean Percentage Change in ATP Levels,[8],60%
same,Median Percentage Change in ATP Levels,[8],61%
same,Mean Percentage Change in ATP Levels,[9],51%
same,Median Percentage Change in ATP Levels,[9],54%
same,"Mean Maximum Percent Change from Baseline, ATP","HV MAD, all doses and timepoints (N = 36)",68.5%
same,"Mean Maximum Percent Change from Baseline, ATP","HV SAD, all doses and timepoints (N = 24)",24.4%
same,mean percentage change in ATP blood levels,[10],0%
same,median percentage change in ATP blood levels,[10],0%
same,mean percentage change in ATP blood levels,[11],0.7%
same,median percentage change in ATP blood levels,[11],−4.5%
same,mean percentage change in ATP blood levels,[12],−2.1%
same,median percentage change in ATP blood levels,[12],−1.7%
same,mean percentage change in ATP blood levels,[13],2.0%
same,median percentage change in ATP blood levels,[13],1.7%
same,mean percentage change in ATP blood levels,[14],−6.9%
same,median percentage change in ATP blood levels,[14],−6.6%
same,mean percentage change in ATP blood levels,[15],3.4%
same,median percentage change in ATP blood levels,[15],4.7%
same,mean percentage change in ATP blood levels,[16],6.2%
same,median percentage change in ATP blood levels,[16],4.1%
same,mean percentage change in ATP blood levels,[17],2.0%
same,median percentage change in ATP blood levels,[17],−2.4%
same,mean percentage change in ATP blood levels,[18],12%
same,median percentage change in ATP blood levels,[18],11%
same,mean percentage change in ATP blood levels,[19],0%
same,median percentage change in ATP blood levels,[19],0%
same,mean percentage change in ATP blood levels,[20],2.2%
same,median percentage change in ATP blood levels,[20],4.1%
same,mean percentage change in ATP blood levels,[21],−2.5%
same,median percentage change in ATP blood levels,[21],−8.8%
same,mean percentage change in ATP blood levels,[22],5.6%
same,median percentage change in ATP blood levels,[22],7.2%
same,mean percentage change in ATP blood levels,[23],5.6%
same,median percentage change in ATP blood levels,[23],4.5%
same,mean percentage change in ATP blood levels,[24],15%
same,median percentage change in ATP blood levels,[24],13%
same,mean percentage change in ATP blood levels,[25],18%
same,median percentage change in ATP blood levels,[25],16%
same,mean percentage change in ATP blood levels,[26],14%
same,median percentage change in ATP blood levels,[26],14%
same,mean percentage change in ATP blood levels,[27],14%
same,median percentage change in ATP blood levels,[27],18%
same,mean percentage change in ATP blood levels,[28],0%
same,median percentage change in ATP blood levels,[28],0%
same,mean percentage change in ATP blood levels,[29],−2.8%
same,median percentage change in ATP blood levels,[29],−2.6%
same,mean percentage change in ATP blood levels,[30],−2.9%
same,median percentage change in ATP blood levels,[30],−1.6%
same,mean percentage change in ATP blood levels,[31],−5.5%
same,median percentage change in ATP blood levels,[31],−5.4%
same,mean percentage change in ATP blood levels,[32],−1.3%
same,median percentage change in ATP blood levels,[32],−2.4%
same,mean percentage change in ATP blood levels,[33],13%
same,median percentage change in ATP blood levels,[33],12%
same,mean percentage change in ATP blood levels,[34],4.5%
same,median percentage change in ATP blood levels,[34],3.6%
same,mean percentage change in ATP blood levels,[35],2.5%
same,median percentage change in ATP blood levels,[35],0%
same,mean percentage change in ATP blood levels,[36],10%
same,median percentage change in ATP blood levels,[36],5.1%
same,mean percentage change in ATP blood levels,[37],0%
same,median percentage change in ATP blood levels,[37],0%
same,mean percentage change in ATP blood levels,[38],−1.7%
same,median percentage change in ATP blood levels,[38],5.1%
same,mean percentage change in ATP blood levels,[39],4.0%
same,median percentage change in ATP blood levels,[39],3.1%
same,mean percentage change in ATP blood levels,[40],2.9%
same,median percentage change in ATP blood levels,[40],7.3%
same,mean percentage change in ATP blood levels,[41],6.9%
same,median percentage change in ATP blood levels,[41],2.4%
same,mean percentage change in ATP blood levels,[42],12%
same,median percentage change in ATP blood levels,[42],14%
same,mean percentage change in ATP blood levels,[43],13%
same,median percentage change in ATP blood levels,[43],16%
same,mean percentage change in ATP blood levels,[44],14%
same,median percentage change in ATP blood levels,[44],10%
same,mean percentage change in ATP blood levels,[45],22%
same,median percentage change in ATP blood levels,[45],20%
same,lag of maximum increase in blood ATP behind maximum plasma concentration,"HV single 200, 400, 700 or 1000 mg",at least 24 hours
